Results on 1 compound are retold here after US10155802B2, “Locally-active anticoagulants and anti-inflammatory agents” (priority 2011, dated 2018).

The target in one data set is T1, Human α-thrombin (Homo sapiens, UniProt P00734).
T1 construct: Human α-thrombin was purchased from Haemotologic Technologies, Inc., VT, USA; purchased Haemotologic Technologies, Inc., VT, USA
Description: Inhibition of thrombin-catalyzed hydrolysis of chromogenic substrate S-2366 (inhibition constant Ki). It counts as biochemical. As to conditions: for Kd: KD (dissociation constant of open species = Ki x popen); for Ki: pH 7.6.

A short description of data set [1]: Thermal unfolding of hairpin linkers (Tm, unfolded population punfold). Format: physicochemical. As to conditions: calculated, two-state unfolding. From the text:
Assuming a two-state unfolding of the trpzip linkers, the unfolded populations punfold=popen (Table 3) can be calculated using reported thermal characteristics of isolated trpzip peptides (Cochran 2001). It is important (Cochran 2001) to take into consideration bulk temperature dependences of the enthalpy and entropy differences between folded and unfolded states of trpzip peptides (Privalov 1997). Disregard for the appreciable ΔCp difference between folded and unfolded species would lead to particularly large underestimation of punfold for BTI5, since the bulk temperatures used for Ki determination were far from the trpzip4 folding transition point.
The punfold value for the BTI2 inhibitor was calculated using ΔH=11.6 kcal/mol and ΔS=39 cal/mol/K obtained in earlier studies of the gb1 peptide (Munoz 1997), which gives punfold values of 0.44 and 0.69 at 21° C. and 37° C., respectively. […] (Table 3). More importantly, all the KD values are close to those of BTI1 which contains a flexible (or random-coil) (GS)8 linker, which confirms the predicted small variation in KD values for bivalent ligands connected by flexible linkers of equal contour length and similar composition (Zhou 2001a; Zhou, 2001b).

SMILES strings stand for the structures. Like-named read-outs stand apart in the source and are kept apart here.

The term Kd denotes the free concentration of one partner at which half of the binding sites on the other are occupied at equilibrium, for simple one-to-one binding. Low readings indicate a tighter complex, high ones a looser complex. As a reminder, the Ki is the dissociation constant of the complex between target and ligand, obtained from inhibition or displacement.

`CC[C@H](C)[C@H](NC(=O)[C@H](CCC(=O)O)NC(=O)[C@H](CCC(=O)O)NC(=O)[C@H](Cc1ccccc1)NC(=O)[C@H](CC(=O)O)NC(=O)CNC(=O)[C@H](CO)NC(=O)CNC(=O)[C@H](CO)NC(=O)CNC(=O)[C@H](CO)NC(=O)CNC(=O)[C@H](CO)NC(=O)CNC(=O)[C@H](CO)NC(=O)CNC(=O)[C@H](CO)NC(=O)CNC(=O)[C@H](CO)NC(=O)CNC(=O)[C@H](CO)NC(=O)CNC(=O)[C@H]1CCCCN1C(=O)[C@H](CCCNC(=N)N)NS(=O)(=O)c1ccc(C(C)(C)C)cc1)C(=O)N1CCC[C@H]1C(=O)N[C@@H](CCC(=O)O)C(=O)N[C@@H](CCC(=O)O)C(=O)N[C@@H](Cc1ccc(O)cc1)C(=O)N[C@@H](CC(C)C)C(=O)N[C@@H](CCC(N)=O)C(=O)O` [BTI1]: the Kd on Human α-thrombin (T = 21° C.) worked out at 0.53 ± 0.03 nM; at Human α-thrombin (T = 37° C.) it was 1.3 ± 0.3 nM. The Ki on Human α-thrombin (Ki, T = 21° C.) was determined as 0.53 ± 0.03 nM; at Human α-thrombin (T = 37° C., read-out: Ki), 1.3 ± 0.3 nM. Further, the “punfold (population of unfolded/open linker)” value in data set [1] (T = 21° C.) and in data set [1] (T = 37° C.) was 1 in each case.
